Laboratory results: PMC11284788, “NN1213 – A Potent, Long-Acting, and Selective Analog of Human Amylin” (Journal of Medicinal Chemistry, 2024)
pIC50: −log10 of the molar value. ≈ marks a conversion by molar mass, not a printed value. Where two headings read alike, the source gives them in different places. Numbered stars: 1 amine (or outer) side, 2 acyl side, 3 side chain; on linkers, the order of the positions; unused ones are H or OH. Bridge positions count the residues as written; N and C are the ends. Side chains are listed from the residue outwards. Peptide text beside a SMILES is read from it. * marks the point of attachment. C20 diacid = O=C(O)CCCCCCCCCCCCCCCCCCC(=O)*; γGlu = O=C(O)[C@H](CCC(=O)[*:2])N[*:1]

What was measured:
[1] = HMWP content by size-exclusion chromatography; assay type: physicochemical; conditions: covalent dimers and polymers prior to fibril formation testing, SEC, % of total absorbance area at 215 nm
In short: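 Amylin analogs analysed before fibril-formation testing by isocratic SEC in 0.5 M NaCl, 10 mM sodium dihydrogen phosphate, 5 mM ortho-phosphoric acid, 50% (v/v) 2-propanol. HMWP (covalent dimers/polymers) given as peak absorbance area percentage of total, assuming equal extinction coefficients for HMWP and main peak.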

rCTR = target: T1, rCTR (Rattus norvegicus, UniProt P32214); experiment: scintillation proximity binding assay, rCTR membranes; conditions: for IC50: read-out: rCTR pIC50 (converted); for pIC50: SPA, BHK cell membranes, 125I-Calcitonin 75 pM, 120 min 25 °C, read-out: rCTR IC50
T1 construct: expressed in transfected cells; host or cells: BHK tk-ts 13, transient (FuGENE 6)
T1 sequence (P32214 25-479 isoform P32214-2 limits assumed): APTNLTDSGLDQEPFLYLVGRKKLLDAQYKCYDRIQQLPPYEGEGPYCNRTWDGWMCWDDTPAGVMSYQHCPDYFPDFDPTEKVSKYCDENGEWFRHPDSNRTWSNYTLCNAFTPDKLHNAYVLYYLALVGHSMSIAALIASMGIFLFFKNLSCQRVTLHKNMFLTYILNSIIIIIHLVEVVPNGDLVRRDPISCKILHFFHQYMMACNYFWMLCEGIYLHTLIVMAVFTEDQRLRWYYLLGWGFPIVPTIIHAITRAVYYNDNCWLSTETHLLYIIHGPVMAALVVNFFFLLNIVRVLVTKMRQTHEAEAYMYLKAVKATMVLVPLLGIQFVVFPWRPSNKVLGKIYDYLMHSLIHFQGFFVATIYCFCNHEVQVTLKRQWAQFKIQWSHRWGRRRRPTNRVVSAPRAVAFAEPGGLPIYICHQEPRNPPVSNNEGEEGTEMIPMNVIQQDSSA
Method: The apparent binding affinities were determined using a scintillation proximity assay with beads from PerkinElmer and cell membranes containing the AMY3R or CTRs. […] Membranes were harvested and membranes were prepared and kept at −80 °C until use. The assay was performed in a 384-well Optiplate (PerkinElmer). Membranes were mixed with scintillation proximity assay beads in a 1:1 ratio. […] Samples were analyzed on a TopCounter (Packard). The IC50 values were calculated using GraphPad Prism. See Supporting Information S7: SAR Screening Assay Methods (Binding Assays (Human and Rat)) for more information.
Binding Assays (Human and Rat). Brief descriptions of the methods used to determine binding affinities for SAR analysis are described below. Curves and IC50 values were plotted and calculated in GraphPad Prism using nonlinear regression (one site binding competition analysis), with pIC50 values […]
values were used to calculate the binding affinity ratios in order to express the selectivity of compounds for the AMY3R versus the CTR.
CTR Binding Assay. The binding assay was performed using scintillation proximity assay (SPA) beads (RPNQ0001) from PerkinElmer and cell membranes containing either the hCTR or rCTR. BHK […]
Membranes were prepared in the following way: the cells were rinsed with PBS and incubated with Versene for approximately 5 min before harvesting. The cells were flushed with PBS and the cell-suspension was centrifuged for 5 min at 1000 rpm. Cells were homogenized (Ultra Turrax) in a buffer […]
containing 20 mM Na-HEPES and 0.1 mM EDTA (pH 7.4, buffer 2). The resulting pellet was re-suspended in buffer 2 and protein concentration was measured (BCA protein assay, Pierce). The homogenate was kept cold during the whole procedure. The membranes were stored at –80 °C until […]
The binding assay was performed in a 384-well Optiplate (PerkinElmer) in a total volume of 40 μL.
Membranes were mixed with SPA beads in a 1:1 ratio. […]
mg/well. Test compounds were dissolved in DMSO and further diluted in assay buffer (50 mM HEPES, pH 7.4, 1 mM CaCl2, 5 mM MgCl2, 0.1% ovalbumin, and 0.02% Tween-20).
Calcitonin (NEX422 PerkinElmer) was dissolved in assay buffer and added to the Optiplate at a final […]
prior to centrifugation (1500 rpm, 10 min). Samples were analyzed on TopCounter (Packard).

[2] = Solubility versus pH profile
[3] = ThT assay: fibril formation propensity and peptide recovery; assay type: physicochemical; conditions: for ThT, pH 7.5 lag-time / ThT, pH 4.0 lag-time: 250 μM peptide, 37 °C, 960 rpm, 45 h, lowest of four replicas, average of experiments; for ThT, pH 7.5 lag-time: 10 mM HEPES pH 7.5, 1 μM ThT; for recovery: residual dissolved peptide after 45 h of shaking, centrifugation and 0.22 μm filtration, HPLC, relative to amount before stress; for ThT, pH 4.0 lag-time: 10 mM glycylglycine pH 4.0, 1 μM ThT
In short: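 Peptides at 250 μM in 10 mM glycylglycine (pH 4.0) or HEPES (pH 7.5) with 1 μM ThT, shaken at 37 °C, 960 rpm, for 45 h; ThT fluorescence (ex 444/em 485 nm) read every 20 min. Lag time is the lowest of four replicates (>45 h if none); recovery is soluble peptide by HPLC after centrifugation/filtration, relative to pre-stress.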

[4] = SPA binding assay, Tables S13 and S15
[5] = bis-tris-propane buffer, pH 6, aqueous buffer
[6] = bis-tris-propane buffer, pH 6.5, aqueous buffer
[7] = bis-tris-propane buffer, pH 7, aqueous buffer
[8] = bis-tris-propane buffer, pH 7.5, aqueous buffer
[9] = bis-tris-propane buffer, pH 8, aqueous buffer
[10] = lactate buffer, pH 4, aqueous buffer
[11] = lactate buffer, pH 5, aqueous buffer

SMILES | HMWP ([1]; analogs 1–9 (pH 7.5 series)) [%] | IC50 (rCTR; [4]) [µM] | pIC50 (rCTR) | solubility kinetic [2, 5] [µM] | solubility kinetic [2, 6] [µM] | solubility kinetic [2, 7] [µM] | solubility kinetic [2, 8] [µM] | solubility kinetic [2, 9] [µM] | solubility kinetic [2, 10] [µM] | solubility kinetic [2, 11] [µM] | ThT, pH 7.5 lag-time [3] [h] | recovery ([3]; pH 7.5) [%] | HMWP ([1]; analogs 10–21 (pH 4.0 series)) [%] | rCTR pIC50 (rCTR; [4]) | ThT, pH 4.0 lag-time [3] [h] | recovery ([3]; pH 4.0) [%]
CC[C@H](C)[C@H](NC(=O)[C@@H]1CCCN1C(=O)CNC(=O)[C@H](Cc1ccccc1)NC(=O)[C@H](CC(N)=O)NC(=O)[C@@H]1CCCN1C(=O)[C@H](CO)NC(=O)[C@H](CO)NC(=O)[C@H](Cc1c[nH]cn1)NC(=O)[C@H](CCCNC(=N)N)NC(=O)[C@H](CC(C)C)NC(=O)[C@H](Cc1ccccc1)NC(=O)[C@H](CC(=O)O)NC(=O)[C@H](C)NC(=O)[C@H](CC(C)C)NC(=O)[C@H](CCCNC(=N)N)NC(=O)[C@H](CCC(N)=O)NC(=O)[C@@H](NC(=O)[C@H](C)NC(=O)[C@@H]1CSSC[C@H](NC(=O)[C@@H](N)CCCCNC(=O)CC[C@H](NC(=O)CC[C@H](NC(=O)CCCCCCCCCCCCCCCCCCC(=O)O)C(=O)O)C(=O)O)C(=O)N[C@@H](CC(N)=O)C(=O)N[C@@H]([C@@H](C)O)C(=O)N[C@@H](C)C(=O)N[C@@H]([C@@H](C)O)C(=O)N1)[C@@H](C)O)C(=O)N[C@@H](CC(C)C)C(=O)N[C@@H](CO)C(=O)N[C@@H](CO)C(=O)N[C@H](C(=O)N[C@@H](CC(N)=O)C(=O)N[C@H](C(=O)NCC(=O)N[C@@H](CO)C(=O)N[C@@H](CC(=O)O)C(=O)N[C@H](C(=O)N[C@@H](Cc1ccc(O)cc1)C(N)=O)[C@@H](C)O)C(C)C)[C@@H](C)O [Peptide 3] (H-K([γGlu-γGlu-C20 diacid])CNTATCATQRLADFLRHSSPNFGPILSSTNVGSDTY-NH2; disulfide 2-7) | 24 | 0.355 | 6.45 | 1 (≈ 4.55 µg/mL) | 1 (≈ 4.55 µg/mL) | 1 (≈ 4.55 µg/mL) | 1 (≈ 4.55 µg/mL) | 2 (≈ 9.11 µg/mL) | 1 (≈ 4.55 µg/mL) | 1 (≈ 4.55 µg/mL) | 0.3 | 19 |  |  |  | 
CC(C)C[C@H](NC(=O)[C@H](CCCNC(=N)N)NC(=O)[C@H](CCC(N)=O)NC(=O)[C@@H](NC(=O)[C@H](C)NC(=O)[C@@H]1CSSC[C@H](NC(=O)[C@@H](N)CCCCNC(=O)CC[C@H](NC(=O)CC[C@H](NC(=O)CCCCCCCCCCCCCCCCCCC(=O)O)C(=O)O)C(=O)O)C(=O)N[C@@H](CC(N)=O)C(=O)N[C@@H]([C@@H](C)O)C(=O)N[C@@H](C)C(=O)N[C@@H]([C@@H](C)O)C(=O)N1)[C@@H](C)O)C(=O)N[C@@H](C)C(=O)N[C@@H](CC(=O)O)C(=O)N[C@@H](Cc1ccccc1)C(=O)N[C@@H](CC(C)C)C(=O)N[C@@H](CCCNC(=N)N)C(=O)N[C@@H](Cc1c[nH]cn1)C(=O)N[C@@H](CO)C(=O)N[C@@H](CO)C(=O)N1CCC[C@H]1C(=O)N[C@@H](CC(N)=O)C(=O)N[C@@H](Cc1ccccc1)C(=O)NCC(=O)N[C@@H](C)C(=O)N1CCC[C@H]1C(=O)N[C@@H](CC(C)C)C(=O)N[C@@H](CO)C(=O)N[C@@H](CO)C(=O)N[C@H](C(=O)N[C@@H](CC(N)=O)C(=O)N[C@H](C(=O)NCC(=O)N[C@@H](CO)C(=O)N[C@@H](CC(=O)O)C(=O)N[C@H](C(=O)N[C@@H](Cc1ccc(O)cc1)C(N)=O)[C@@H](C)O)C(C)C)[C@@H](C)O [Peptide 5] (H-K([γGlu-γGlu-C20 diacid])CNTATCATQRLADFLRHSSPNFGAPLSSTNVGSDTY-NH2; disulfide 2-7) | 7 | 0.105 | 6.98 | ≥ 200 | ≥ 200 | ≥ 200 | ≥ 200 | ≥ 200 | ≥ 200 | 172 (≈ 776 µg/mL) | 35 | 100 |  |  |  | 
CC[C@H](C)[C@H](NC(=O)[C@H](C)NC(=O)CNC(=O)[C@H](Cc1ccccc1)NC(=O)[C@H](CC(N)=O)NC(=O)[C@@H]1CCCN1C(=O)[C@H](CO)NC(=O)[C@H](CO)NC(=O)[C@H](Cc1c[nH]cn1)NC(=O)[C@H](CCCNC(=N)N)NC(=O)[C@H](CC(C)C)NC(=O)[C@H](Cc1ccccc1)NC(=O)[C@H](CC(N)=O)NC(=O)[C@H](C)NC(=O)[C@H](CC(C)C)NC(=O)[C@H](CCCNC(=N)N)NC(=O)[C@H](CCC(N)=O)NC(=O)[C@@H](NC(=O)[C@H](C)NC(=O)[C@@H]1CSSC[C@H](NC(=O)[C@H](CCCCN)NC(=O)COCCOCCNC(=O)COCCOCCNC(=O)CC[C@H](NC(=O)CCCCCCCCCCCCCCCCCCC(=O)O)C(=O)O)C(=O)N[C@@H](CC(N)=O)C(=O)N[C@@H]([C@@H](C)O)C(=O)N[C@@H](C)C(=O)N[C@@H]([C@@H](C)O)C(=O)N1)[C@@H](C)O)C(=O)N1CCC[C@H]1C(=O)N[C@@H](CO)C(=O)N[C@@H](CO)C(=O)N[C@H](C(=O)N[C@@H](CC(N)=O)C(=O)N[C@H](C(=O)NCC(=O)N[C@@H](CO)C(=O)N[C@@H](CC(N)=O)C(=O)N[C@H](C(=O)N[C@@H](Cc1ccc(O)cc1)C(N)=O)[C@@H](C)O)C(C)C)[C@@H](C)O [Peptide 10] |  |  |  | ≥ 200 | ≥ 200 | ≥ 200 | ≥ 200 | ≥ 200 | ≥ 200 | ≥ 200 |  |  | 2.7 | 6.46 | 34 | 0
CC[C@H](C)[C@H](NC(=O)[C@H](C)NC(=O)CNC(=O)[C@H](Cc1ccccc1)NC(=O)[C@H](CC(N)=O)NC(=O)[C@@H]1CCCN1C(=O)[C@H](CO)NC(=O)[C@H](CO)NC(=O)[C@H](Cc1c[nH]cn1)NC(=O)[C@H](CCCNC(=N)N)NC(=O)[C@H](CC(C)C)NC(=O)[C@H](Cc1ccccc1)NC(=O)[C@H](CC(N)=O)NC(=O)[C@H](C)NC(=O)[C@H](CC(C)C)NC(=O)[C@H](CCCNC(=N)N)NC(=O)[C@H](CCC(N)=O)NC(=O)[C@@H](NC(=O)[C@H](C)NC(=O)[C@@H]1CSSC[C@H](NC(=O)[C@H](CCCCN)NC(=O)CC[C@H](NC(=O)CCCCCCCCCCCCCCCCCCC(=O)O)C(=O)O)C(=O)N[C@@H](CC(N)=O)C(=O)N[C@@H]([C@@H](C)O)C(=O)N[C@@H](C)C(=O)N[C@@H]([C@@H](C)O)C(=O)N1)[C@@H](C)O)C(=O)N1CCC[C@H]1C(=O)N[C@@H](CO)C(=O)N[C@@H](CO)C(=O)N[C@H](C(=O)N1CCC[C@H]1C(=O)N[C@H](C(=O)NCC(=O)N[C@@H](CO)C(=O)N[C@@H](CCC(=O)O)C(=O)N[C@H](C(=O)N[C@@H](Cc1ccc(O)cc1)C(N)=O)[C@@H](C)O)C(C)C)[C@@H](C)O [Peptide 11] ({C20 diacid-γGlu}-KCNTATCATQRLANFLRHSSPNFGAIPSSTPVGSETY-NH2; disulfide 2-7) |  | 0.0513 | 7.29 | ≥ 200 | ≥ 200 | ≥ 200 | ≥ 200 | ≥ 200 | ≥ 200 | ≥ 200 |  |  | 2.6 |  | 40 | 74
